Measurements published in US20050222186A1, “Substituted diaminopyrimidines” (Altana Pharma AG, priority 2002, published 2005).

Legend:
[1] = target: recombinant human PKC-θ enzyme (Homo sapiens, UniProt Q04759); test: Protein Kinase C-θ assay (SPA, 33P-ATP phosphorylation of biotinylated substrate peptide); assay type: biochemical; conditions: 1 μM ATP, 40 min at room temperature, 1% DMSO, read-out: Inhibition of PKC-θ activity [measured as IC50 (μmol/l)]
Description: The compounds of formula 1 were tested for their activity on PKC-θ according to the following method. The assay was performed in 96 well microtiter plates (Perkin Elmer Wallac) at a final assay volume of 200 μl. The reaction mixture (50 μl) contained 10 μl of recombinant human PKC-θ enzyme together with 5 μl of the test compound and 3 μM biotinylated PKC-θ substrate peptide (Biotin-RKRQRSMRRRVHOH), 160 μM phosphatidylserine, 0.3 mg/ml BSA, 1 μM ATP and 2 μCi of ^33γ-ATP (Amersham) in 40 mM Tris-buffer pH 7.4. Incubation was performed for 40 min at room temperature. The reaction was stopped by adding 150 μl of a mixture containing 10 mM ATP and 1.33 mg/ml streptavidin coated yttrium silicate SPA beads (Amersham). Incorporated radioactivity (cpm) was measured for 2 min in a radioactivity counter (Wallac MicroBeta JET). […] IC50 values for inhibition of PKC-θ were calculated from the concentration-inhibition curves by nonlinear-regression.

CD4+ T lymphocytes = test: CD4+ IL-2 secretion assay (ELISA of supernatants); assay type: cell-based; conditions: αCD3/αCD28 stimulated CD4+ T lymphocytes, 48 h incubation, IL-2 in supernatants by ELISA; read-out: Inhibition of IL-2 secretion in CD4+ cell [measured as IC50 (μmol/l)]
Description: (§1) CD4+ lymphocytes were purified as described by Hatzelmann and Schudt (J Pharmacol Exp Ther 297: 267-279) and resuspended in assay medium (RPMI 1640/10% fetal calf serum (FCS) containing 2 mM Glutamine, 1% sodiumpyruvate, 1% non-essential amino acids and 1% penicillin/streptomycin) at a density of 1×10^6 cells/ml. 96 well plates were coated with αCD3 antibodies (0.3 μg/well; Ortho-clone OKT-3, Jansen-Cilag) for 2.5 h at 37° C. in 5% CO2 and then washed twice with PBS (200 μl/well). Prior to plating of the cells (200 μl, 2×10^5 cells) the compounds of formula 1 dissolved in 2% DMSO were added to the antibody-coated plates at the desired concentrations. Following a preincubation period of 30 min at 37° C. and 5% CO2 10 μl of αCD28 antibody (3 μg/ml, Beckman) were added and incubation continued for 48 h at 37° C. and 5% CO2. 18 h prior to cell harvest 10 μl of ^3H-methylthymidin (0.2 μCi, Amersham) were added. After 48 h total incubation time the cells were lysed using deionized water and radiolabeled DNA was immobilized on 96 well filter plates using a Tomtec device. The plates were dried at 60° C. for 1 h and overlayed with 40 μl Microscint-O (Packard) before counting in a Topcount radioactivity counter (Packard). Calculation of IC50 values was performed as described above.
CD4+ T lymphocytes were stimulated and treated with compounds of formula 1 as described above for the CD4+ proliferation assay. Following a 48 h incubation period IL-2 levels in the supernatants (50 μl/well) were determined by ELISA (Beckman Coulter). Calculation of IC50 values was performed as described above.

CD4+ lymphocytes = test: CD4+ proliferation assay (αCD3/αCD28 stimulation, 3H-methylthymidin incorporation); assay type: cell-based; conditions: Lymphocyte, αCD3/αCD28 stimulated CD4+ lymphocytes, 48 h incubation, read-out: Inhibition of CD4+ cell proliferation [measured as IC50 (μmol/l)]
Description: as §1

recombinant human PKC-θ enzyme, sequence (Q04759 whole entry): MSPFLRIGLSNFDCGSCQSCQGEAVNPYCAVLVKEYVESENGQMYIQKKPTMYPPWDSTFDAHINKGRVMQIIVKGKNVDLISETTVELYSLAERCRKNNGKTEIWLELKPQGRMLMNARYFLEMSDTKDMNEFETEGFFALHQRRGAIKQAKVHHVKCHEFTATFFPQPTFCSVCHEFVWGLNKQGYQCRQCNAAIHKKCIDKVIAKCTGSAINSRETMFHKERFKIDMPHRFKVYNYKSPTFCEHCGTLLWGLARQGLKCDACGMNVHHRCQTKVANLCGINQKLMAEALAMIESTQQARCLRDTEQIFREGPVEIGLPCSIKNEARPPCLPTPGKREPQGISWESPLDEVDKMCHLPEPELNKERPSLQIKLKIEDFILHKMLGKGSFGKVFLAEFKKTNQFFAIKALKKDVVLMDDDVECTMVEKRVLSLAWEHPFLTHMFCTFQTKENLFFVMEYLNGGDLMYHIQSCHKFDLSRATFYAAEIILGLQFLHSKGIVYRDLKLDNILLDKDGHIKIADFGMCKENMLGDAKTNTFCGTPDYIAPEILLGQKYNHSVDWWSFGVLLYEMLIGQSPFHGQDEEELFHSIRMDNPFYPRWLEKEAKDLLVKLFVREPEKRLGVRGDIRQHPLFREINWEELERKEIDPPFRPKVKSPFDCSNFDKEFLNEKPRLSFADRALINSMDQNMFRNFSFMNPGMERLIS

IC50 [1] [µmol/L]	IC50 (CD4+ T lymphocytes) [µmol/L]	Compound	IC50 (CD4+ lymphocytes) [µmol/L]
< 4	–	CC(=O)c1cccc(-c2cnc(NCc3ccccn3)nc2NC2CCN(Cc3ccccc3)CC2)c1 [Example 22, 1-(3-[4-(1-Benzyl-piperidinylamino)-2-[(pyridin-2-ylmethyl)-amino]-pyrimidin-5-yl}phenyl)-ethanone]	–
< 4	< 4	c1ccc(CN2CCC(Nc3nc(NCc4ccccn4)ncc3-c3cccs3)CC2)cc1 [Example 14, {5-(2-Thienyl)-2-[(2-pyridylmethyl)amino)pyrimidin-4-yl}[1-benzyl(4-piperidyl)]amine]	< 4
–	< 4	NC(=O)c1ccc(-c2cnc(NCc3ccncc3)nc2NC2CCN(Cc3ccccc3)CC2)cc1 [Example 6, {5-(Phenyl-4-carboxamido)-2-[(4-pyridylmethyl)amino)pyrimidin-4-yl}[1-benzyl(4-piperidyl)]-amine]	–
–	< 4	c1ccc(CN2CCC(Nc3nc(NCc4ccncc4)ncc3-c3cccs3)CC2)cc1 [Example 8, {5-(2-Thienyl)-2-[(4-pyridylmethyl)amino)pyrimidin-4-yl}[1-benzyl(4-piperidyl)]amine]	< 4
< 4	< 4	c1ccc(CN2CCC(Nc3nc(NCc4ccccn4)ncc3-c3ccoc3)CC2)cc1 [Example 13, {5-(3-Furanyl)-2-[(2-pyridylmethyl)amino)pyrimidin-4-yl}[1-benzyl(4-piperidyl)]amine]	–
< 4	< 4	c1ccc(CN2CCC(Nc3nc(NCc4ccccn4)ncc3-c3ccsc3)CC2)cc1 [Example 1, [1-Benzyl(4-piperidyl)]{2-[(2-pyridylmethyl)amino]-5-(3-thienyl)pyrimidin-4-yl}amine]	< 4
< 4	–	CC(=O)c1ccc(-c2cnc(NCc3ccccn3)nc2NC2CCN(Cc3ccccc3)CC2)cc1 [Example 21]	–
< 4	< 4	c1ccc(CN2CCC(Nc3nc(NCc4ccccn4)ncc3-c3ccco3)CC2)cc1 [Example 12, {5-(2-Furanyl)-2-[(2-pyridylmethyl)amino)pyrimidin-4-yl}[1-benzyl(4-piperidyl)]amine]	–
< 4	< 4	NC(=O)c1ccc(-c2cnc(NCc3ccccn3)nc2NC2CCN(Cc3ccccc3)CC2)cc1 [Example 15]	< 4
